Laboratory results taken from patent US20260258081A1, “PEPTIDE HAVING HAIR GROWTH PROMOTING ACTIVITY, AND USE THEREOF” (CAREGEN CO., LTD., priority 2019, published 2026).

Experiments:
Type in all cases: cell-based
[1] = system: human dermal papilla cells; assay: PCR expression of growth factors VEGF, bFGF, KGF and HGF; conditions: peptide 0.5 uM, 5 uM or 50 uM, 1 day, serum-free medium, FIG. 3
Procedure: (§1) The promoting effect of the peptide consisting of the amino acid sequence of SEQ ID NO: 1 on the activity of a growth factor of hair follicle cells was to be confirmed. In detail, human dermal papilla cells were seeded in a 96-well plate at a density of 4×10^5 cells/well, and cultured for 16 hours. The culture medium was replaced with a serum-free medium, and the peptide was added thereto at a concentration of 0.5 uM, 5 uM, or 50 uM, and the cells were cultured for 1 day. Here, as a positive control group, 5 uM of Minoxidil was treated. After the cells were harvested, RNA was extracted therefrom and used for synthesis of cNDA by using a cDNA synthesis kit and PCR pre-mix.

[2] = system: human dermal papilla cells; assay: PCR expression of Lef-1, Cyclin D1 and c-Myc (activity of dermal papilla cells); conditions: peptide 0.5 uM, 5 uM or 50 uM, 1 day, serum-free medium, FIG. 2
Procedure: as §1, with “activity” for “activity of a growth factor”, “cDNA” for “cNDA”, “pre-mix (Intron, Korea).” for “pre-mix.”

[3] = system: human dermal papilla cells; assay: Western blotting of apoptosis-related proteins Bax, Cleaved PARP-1, Cleaved Caspase-3, Bcl2; conditions: peptide 0.5 uM, 5 uM or 50 uM, 1 day, serum-free medium; western blot; FIG. 4
Procedure: The inhibitory effect of the peptide consisting of the amino acid sequence of SEQ ID NO: 1 on the control of expression of apoptosis-related proteins of hair follicle cells was to be confirmed. In detail, human dermal papilla cells were seeded in a 96-well plate at a density of 4×10^5 cells/well, and cultured for 16 hours. The culture medium was replaced with a serum-free medium, and the peptide was added thereto at a concentration of 0.5 uM, 5 uM, or 50 uM, and the cells were cultured for 1 day. Here, as a positive control group, 5 uM of Minoxidil was treated. Cell lysates were prepared by harvesting the cell, and then, western blotting was performed with respect to Bax, Cleaved PARP-1, Cleaved Caspase-3, or Bcl2 by using Bax antibodies, Cleaved PARP-1 antibodies, Cleaved Caspase-3 antibodies, or Bcl2 antibodies (Santacruz biotechnology, USA), respectively.

[4] = system: human hair follicle germinal matrix cells; assay: PCR expression of MSX2 (activity of germinal matrix cells); conditions: peptide 0.5 uM, 5 uM or 50 uM, 1 day, serum-free medium, FIG. 6
Procedure: as §1, with “germinal matrix” for “a growth factor of hair follicle”, “human hair follicle” for “human”, “EGF” for “Minoxidil”

[5] = system: human dermal papilla cells; assay: PCR expression of DKK-1 under DHT stimulation; conditions: DHT 10 ug/ml as stimulator, peptide 0.5 uM, 5 uM or 50 uM, 1 day, serum-free medium, FIG. 5
Procedure: The inhibitory effect of the peptide consisting of the amino acid sequence of SEQ ID NO: 1 on the expression of DKK-1, which is a hair loss-related factor, in hair follicle cells was to be confirmed. In detail, human dermal papilla cells were seeded in a 96-well plate at a density of 4×10^5 cells/well, and cultured for 16 hours. After the culture medium was replaced with a serum-free medium, dihydrotestosterone (DHT) as a stimulator was added thereto at a concentration of 10 ug/ml while peptide was added thereto at a concentration of 0.5 uM, 5 uM, or 50 uM. Then, the cells were cultured for 1 day. As a positive control, 50 uM of Finasteride which is a drug inhibiting male hormones was treated. Here, DHT is known as a hair loss hormone that increases the expression of DKK-1, which is a hair loss-inducible factor, by activating an androgen receptor. After the cells were harvested, RNA was extracted therefrom and used for synthesis of cNDA by using a cDNA synthesis kit and PCR pre-mix.

[6] = system: human hair follicle dermal papilla cells; assay: β-catenin movement from cytoplasm to nucleus, western blotting of nuclear extract; conditions: peptide 0.5 uM, 5 uM or 50 uM, 1 day, serum-free medium; western blot; FIG. 1
Procedure: The promoting effect of the peptide consisting of the amino acid sequence of SEQ ID NO: 1 on the proliferation of hair follicle cells was to be confirmed. In detail, human hair follicle dermal papilla cells were seeded in a 96-well plate at a density of 4×10^5 cells/well, and cultured for 16 hours. The culture medium was replaced with a serum-free medium, and the peptide was added thereto at a concentration of 0.5 uM, 5 uM, or 50 uM, and the cells were cultured for 1 day. Here, as a positive control group, 5 uM of Minoxidil which is used as a hair loss treatment was treated. The cells were harvested and nuclei thereof were isolated by using a nuclear protein extraction kit (Merck, USA). Then, western blotting was performed with respect to β-catenin which is a factor related to proliferation of the dermal papilla cells by using β-catenin antibodies (Santacruz biotechnology, USA).

[7] = system: human hair follicle outer root sheath cells; assay: PCR expression of HA3-II, Keratin 5, Keratin 14 and Keratin 19 (activity of outer root sheath cells); conditions: peptide 0.5 uM, 5 uM or 50 uM, 1 day, serum-free medium, FIG. 7
Procedure: as §1, with “of” for “of a growth factor of”, “follicle outer root sheath” for “follicle”, “hair follicle outer root sheath” for “dermal papilla”, “EGF” for “Minoxidil”, “pre-mix. Then, PCR was performed by using the primer of GAPDH shown in Table 2 and primers of HA3-II, Keratin 5, Keratin 14, and Keratin […] shown in Table 6.” for “pre-mix.”

TKVFPQD [SEQ ID NO: 1]
expression of HGF [1]: increased | expression of KGF [1]: increased | expression of VEGF [1]: increased | expression of bFGF [1]: increased | expression of Cyclin D1 [2]: increased | expression of Lef-1 [2]: increased | expression of c-Myc [2]: increased | expression of Bax [3]: decreased | expression of Bcl2 (anti-apoptosis-related protein) [3]: increased | expression of Cleaved Caspase-3 [3]: decreased | expression of Cleaved PARP-1 [3]: decreased | expression of MSX2 [4]: increase | expression pathway of DKK-1 [5]: inhibit | movement of β-catenin from the cytoplasm to the nucleus [6]: increased | expression of HA3-II [7]: increase | expression of Keratin 5 [7]: increase | expression of Keratin 14 [7]: increase | expression of Keratin 19 [7]: increase
